Source: ChEMBL document CHEMBL5230135, “Peptide Ligands Specifically Targeting HER2 Receptor and the Role Played by a Synthetic Model System of the Receptor Extracellular Domain: Hypothesized Future Perspectives” (J Med Chem, 2020)
Where a SMILES comes first, the peptide text is derived from it.

Experiments:
[1] = Biodistribution in stomach of BALB/c nu/nu mouse measured in organ after 1 hr; format: ADME, organism-based; settings: in vivo
[2] = Biodistribution in spleen of BALB/c nu/nu mouse measured in organ after 1 hr; format: ADME, organism-based; settings: in vivo
[3] = Biodistribution in kidney of BALB/c nu/nu mouse measured in organ after 1 hr; format: ADME, organism-based; settings: in vivo
[4] = Biodistribution in liver of BALB/c nu/nu mouse measured in organ after 1 hr; format: ADME, organism-based; settings: in vivo
[5] = Biodistribution in bone of BALB/c nu/nu mouse measured in organ after 1 hr; format: ADME, organism-based, Bone element; settings: in vivo
[6] = target: T1, Receptor tyrosine-protein kinase erbB-2 (Homo sapiens, UniProt P04626); test: Binding affinity to HER2 in human BT-474 cells assessed as dissociation constant by measuring high affinity ligand binding site by LigandTracer technique; format: cell-based
[7] = Biodistribution in lung of BALB/c nu/nu mouse measured in organ after 1 hr; format: ADME, organism-based; settings: in vivo
[8] = Biodistribution in pancreas of BALB/c nu/nu mouse measured in organ after 1 hr; format: ADME, organism-based; settings: in vivo
[9] = Biodistribution in brain of BALB/c nu/nu mouse measured in organ after 1 hr; format: ADME, organism-based; settings: in vivo
[10] = Biodistribution in Carcass of BALB/c nu/nu mouse measured in organ after 1 hr; format: ADME, organism-based; settings: in vivo
[11] = Biodistribution in muscle of BALB/c nu/nu mouse measured in organ after 1 hr; format: ADME, organism-based; settings: in vivo
[12] = Biodistribution in Gastrointestinal tract of BALB/c nu/nu mouse measured in organ after 1 hr; format: ADME, organism-based; settings: in vivo
[13] = target: T1, Receptor tyrosine-protein kinase erbB-2; test: Binding affinity to HER2 in human BT474 cells assessed as dissociation constant by measuring low affinity ligand binding site by LigandTracer technique; format: cell-based, BT-474

T1 sequence (P04626 whole entry): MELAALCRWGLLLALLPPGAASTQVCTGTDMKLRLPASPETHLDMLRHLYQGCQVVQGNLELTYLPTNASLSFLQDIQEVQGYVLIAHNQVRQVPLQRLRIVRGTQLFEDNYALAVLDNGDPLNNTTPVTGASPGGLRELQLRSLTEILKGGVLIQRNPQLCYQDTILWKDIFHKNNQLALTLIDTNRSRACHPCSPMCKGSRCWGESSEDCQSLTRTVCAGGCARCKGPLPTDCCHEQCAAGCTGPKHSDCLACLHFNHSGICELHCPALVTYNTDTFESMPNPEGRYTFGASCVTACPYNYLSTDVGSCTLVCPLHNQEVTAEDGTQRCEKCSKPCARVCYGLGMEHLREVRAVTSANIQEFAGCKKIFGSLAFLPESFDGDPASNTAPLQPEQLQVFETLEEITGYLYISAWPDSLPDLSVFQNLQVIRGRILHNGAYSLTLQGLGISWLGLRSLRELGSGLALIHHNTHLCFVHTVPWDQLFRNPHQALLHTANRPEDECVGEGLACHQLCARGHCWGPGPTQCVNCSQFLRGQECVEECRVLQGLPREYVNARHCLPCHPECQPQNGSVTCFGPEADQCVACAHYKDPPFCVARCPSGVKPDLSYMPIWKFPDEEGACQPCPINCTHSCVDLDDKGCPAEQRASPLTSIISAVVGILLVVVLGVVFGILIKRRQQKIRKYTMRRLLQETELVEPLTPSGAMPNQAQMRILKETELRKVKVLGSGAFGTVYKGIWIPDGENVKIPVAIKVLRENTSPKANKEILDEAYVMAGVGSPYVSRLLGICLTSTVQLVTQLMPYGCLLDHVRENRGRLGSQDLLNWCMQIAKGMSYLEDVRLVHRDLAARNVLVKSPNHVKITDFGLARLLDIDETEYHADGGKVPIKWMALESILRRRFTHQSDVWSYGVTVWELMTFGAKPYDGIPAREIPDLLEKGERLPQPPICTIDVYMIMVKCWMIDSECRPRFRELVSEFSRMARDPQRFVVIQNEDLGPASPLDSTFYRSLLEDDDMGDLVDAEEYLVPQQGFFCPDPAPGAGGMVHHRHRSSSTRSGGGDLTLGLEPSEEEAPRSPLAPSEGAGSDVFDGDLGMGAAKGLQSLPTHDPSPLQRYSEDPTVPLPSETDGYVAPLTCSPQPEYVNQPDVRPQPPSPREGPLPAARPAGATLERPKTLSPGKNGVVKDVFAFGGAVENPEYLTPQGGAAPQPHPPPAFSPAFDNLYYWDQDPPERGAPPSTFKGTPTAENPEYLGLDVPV

SMILES: CC(C)[C@H](NC(=O)[C@H](C)NC(=O)[C@@H](NC(=O)[C@H](CC(N)=O)NC(=O)[C@@H](NC(=O)[C@H](CC(=O)O)NC(=O)[C@H](CCC(N)=O)NC(=O)CN(CCN(CCN(CC(=O)O)CC(=O)O)CC(=O)O)CC(=O)O)C(C)C)[C@@H](C)O)C(=O)N[C@@H](C)C(=O)N[C@@H](Cc1c[nH]c2ccccc12)C(N)=O (HELM PEPTIDE1{[O=C(O)CN(CCN(CC(=O)O)CC(=O)O)CCN(CC(=O)O)CC(=O)[*:2]].Q.D.V.N.T.A.V.A.W.[am]}$$$$V2.0)
- Drug uptake [1]: 0.05 %ID
- Drug uptake [2]: 0.02 %ID
- Drug uptake [3]: 2 %ID
- Drug uptake [4]: 0.47 %ID
- Drug uptake [5]: 0.01 %ID
- Kd [6]: 4.9 nM
- Drug uptake [7]: 0.06 %ID
- Drug uptake [8]: 0.01 %ID
- Drug uptake [9]: 0 %ID
- Drug uptake [10]: 3.47 %ID
- Drug uptake [11]: 0.04 %ID
- Drug uptake [12]: 0.83 %ID
- Kd [13]: 103 nM
